Test results from PMC9728921, “Characterization of a KDM5 small molecule inhibitor with antiviral activity against hepatitis B virus” (PLOS ONE, 2022).

Assays:
Assay type in all cases: cell-based
HBV [1] = assay: Secreted HBsAg by immunoassay in HBV-infected PHH; settings: Hepatitis B virus
Protocol: (§1) Approximately 24 hours after plating, PHH were infected with HepAD38-derived GTD virus at 500 viral genome equivalents per cell in maintenance medium supplemented with 4% PEG 8000 (Promega, Madison, WI; V3011). For patient sera infections, PHH were infected with 6 μl of patient sera in maintenance medium supplemented with 4% PEG 8000. Infections were allowed to proceed for 20–24 hours before removing remaining extracellular virions by washing with maintenance medium three times. […]
Hepatitis B e antigen (HBeAg) and Hepatitis B surface antigen (HBsAg) were detected in culture media at the indicated time by ELISA or electrochemiluminescence assay (MSD). The HBeAg and HBsAg ELISAs were performed using the HBeAg ELISA kit (International Immuno-Diagnostics, Foster City, CA) and HBsAg ETI-MAK-2 plus kit (DiaSorin, Stillwater, MN), respectively according to the manufacturer’s instructions. Concentrations were calculated by interpolation from standard curves with purified HBeAg and HBsAg. The MSD assay was performed according to the manufacturer’s instructions (Meso Scale Diagnostics, Rockville, MD). Briefly, cultured supernatants were inactivated with 0.5% Triton X-100 (30 minutes at 37°C) and then transferred into plates pre-spotted with both an anti-HBeAg antibody (Genway Bio, San Diego, CA) and a custom anti-HBsAg antibody. The plates were then incubated for two hours at room temperature with gentle shaking, followed by a wash step in PBS with 0.5% Tween. MSD sulfate tags anti-A and anti-B (1 μg/mL each) were then added to the wells and the plates incubated for a further two hours at room temperature with gentle shaking, followed by another wash step in PBS with 0.5% Tween. A 2X solution of MSD T Buffer Read was then added and the plate was read on a Sector Imager 6000 plate scanner.
(§2) Antiviral activity of test compounds was determined from vRNA, vDNA, HBeAg, and HBsAg data by comparing compound-treated PHH to DMSO (vehicle)-treated PHH to generate a percent of DMSO control value (% DMSO control). The % DMSO control was calculated by the following equation: %DMSOControl=100xXc/XD where Xc is the signal from the compound-treated PHH and XD is the signal from the DMSO-treated PHH. The % DMSO control for vRNA, vDNA, HBeAg, HBsAg, GAPDH, or RPLP0 was plotted versus the log of each compound concentration in GraphPad Prism (version 6; Graphpad Software, LaJolla, CA) to generate dose-response curves. […] Dose-response curves were fitted using the nonlinear regression equation “log(agonist) versus response–variable slope (four parameters)” in GraphPad Prism to determine EC50 values.

HBV [2] = assay: Extracellular HBV DNA (vDNA) by qPCR in HBV-infected PHH; settings: Hepatitis B virus
Protocol: as §1
Viral DNA from PHH supernatants was purified using the Qiagen DNeasy 96 kit (Germantown, MD; 69582) following the manufacturer’s recommended protocol. Briefly, 50 μl of supernatant was collected, lysed with an equal volume of Qiagen ATL buffer containing 10% proteinase K, and then incubated at 56°C for 10 minutes. Lysates were then mixed with 100 μl of […] containing ethanol, transferred into the DNeasy 96 well plate, and placed onto a vacuum manifold (Qiagen; 19504). The vacuum was applied to bind DNA to the DNeasy membrane while contaminants passed through. DNA bound to the membrane was washed first with 500 μl of AW1followed by 500 μl of AW2 buffer. After washing, plates were centrifuged (Sigma Model 4-16S) at 6000 rpm for 2 minutes. DNA was then eluted with 100 μl of pre-warmed AE buffer by a final centrifugation step of 6000 rpm for 2 minutes.
Quantification of vDNA by qPCR (quantitative polymerase chain reaction) amplification of the HBVX region of the genome was performed by combining 5 μl of DNA, 900 nM of forward primer (5’[…] 3’), 900 nM of reverse primer (5’[…]-3’), 0.2 μM TaqMan probe (5’ [6FAM] […] [NFQ-MGB] 3’), and 1X TaqMan Fast Advanced Master Mix (Thermo Fisher Scientific; 4444557) for a total reaction volume of 20 μl in 96-well PCR plates (Thermo Fisher Scientific; 4346906). qPCR was carried out on a real-time PCR system (Thermo Fisher Scientific; QuantiStudio 7 Flex) using the following conditions: 95°C for 20 seconds, followed by 40 cycles of 95°C for 1 second and 60°C for 20 second. A plasmid containing the HBV full genome was used for the standard curve.
as §2

Cytotoxicity CC50, PHH = settings: human, primary human hepatocytes (PHH)
Description: (§3) a Values represent the geometric mean and multiplicative standard deviation of 3 – 5 primary human hepatocyte (PHH) donors or 5 – 10 independent experiments.
(§4) b MT-4: human T-lymphoblastoid cell line; PBMC: peripheral blood mononuclear cell; Gal-HepG2: galactose adapted human hepatoblastoma cell line; Huh-7: human hepatoma cell line; Gal-PC3: galactose adapted human prostate carcinoma cell line; MRC-5: Medical Research Council 5 embryonal lung fibroblast; NRVM: neonatal rat ventricular cardiomyocytes

Cytotoxicity CC50, MRC-5 = settings: human, MRC-5 cells (embryonal lung fibroblasts)
Description: as §3, §4

Cytotoxicity CC50, MT-4 = settings: human, MT-4 cells (T-lymphoblastoid cell line)
Description: as §3, §4

[3] = system: PHH or a panel of human cells; assay: Cytotoxicity in PHH or in a panel of human cells (summary); settings: concentrations up to 57 μM
Cytotoxicity CC50, NRVM = settings: rat, NRVM (neonatal rat ventricular cardiomyocytes)
Description: as §3, §4

[4] = read-out: HBsAg EC50, PHH donor BCD, HBV GTD, treated every three to four days for 14 days
[5] = read-out: HBsAg EC50, PHH donor Hu276, HBV GTD, treated every three to four days for 14 days
[6] = read-out: HBsAg EC50, PHH donor Hu349, HBV GTD, treated every three to four days for 14 days
[7] = read-out: HBsAg EC50, PHH donor Hu4167, HBV GTD, treated every three to four days for 14 days
[8] = read-out: HBsAg EC50, PHH donor Hu7272, HBV GTD, treated every three to four days for 14 days
[9] = read-out: HBsAg EC50, PHH donor Hu8130, HBV GTD, treated every three to four days for 14 days
[10] = read-out: HBsAg EC50, PHH donor Hu8181, HBV GTD, treated every three to four days for 14 days
[11] = read-out: vDNA EC50, PHH donor BCD, HBV GTD, treated every three to four days for 14 days
[12] = read-out: vDNA EC50, PHH donor Hu276, HBV GTD, treated every three to four days for 14 days
[13] = read-out: vDNA EC50, PHH donor Hu349, HBV GTD, treated every three to four days for 14 days
[14] = read-out: vDNA EC50, PHH donor Hu4167, HBV GTD, treated every three to four days for 14 days
[15] = read-out: vDNA EC50, PHH donor Hu7272, HBV GTD, treated every three to four days for 14 days
[16] = read-out: vDNA EC50, PHH donor Hu8130, HBV GTD, treated every three to four days for 14 days
[17] = read-out: vDNA EC50, PHH donor Hu8181, HBV GTD, treated every three to four days for 14 days

## CCOC(=O)c1cc(CNCC(=O)N(CC)CCN(C)C)ncc1Br [GS-420]
HBV [1]; [4]
  EC50: > 10000 nM
HBV [1]; [5]
  EC50: > 10000 nM
HBV [1]; [6]
  EC50: > 10000 nM
HBV [1]; [7]
  EC50: > 10000 nM
HBV [1]; [8]
  EC50: > 10000 nM
HBV [1]; [9]
  EC50: > 10000 nM
HBV [1]; [10]
  EC50: > 10000 nM
HBV [2]; [11]
  EC50: > 10000 nM
HBV [2]; [12]
  EC50: > 10000 nM
HBV [2]; [13]
  EC50: > 10000 nM
HBV [2]; [14]
  EC50: > 10000 nM
HBV [2]; [15]
  EC50: > 10000 nM
HBV [2]; [16]
  EC50: > 10000 nM
HBV [2]; [17]
  EC50: > 10000 nM

## CCN(CCN(C)C)C(=O)CNCc1cc(C(=O)O)ccn1 [GS-080]
Cytotoxicity CC50, PHH
  CC50: > 50000 nM
Cytotoxicity CC50, MRC-5
  CC50: > 44000 nM
Cytotoxicity CC50, MT-4
  CC50: > 57000 nM
[3]
  measurable cytotoxicity: neither GS-5801 nor GS-080 had measurable cytotoxicity
Cytotoxicity CC50, NRVM
  CC50: > 44000 nM

## CCOC(=O)c1ccnc(CNCC(=O)N(CC)CCN(C)C)c1 [GS-5801]
HBV [1]; 336 h, read-out: EC50, secreted HBsAg, across HBV genotypes (summary value), 14 days of dosing
  EC50: 170 nM
HBV [1]; 336 h, read-out: EC50 range across genotypes, secreted HBsAg, range across genotypes, 14 days of dosing
  EC50: 36 to 3100 nM
HBV [1]; 336 h, read-out: EC50 range for secreted HBsAg, range over the seven PHH donors tested, HBV GTD, Day 14
  EC50: 15 to 1700 nM
HBV [1]; [4]
  EC50: 15 nM
HBV [1]; [5]
  EC50: 150 nM
HBV [1]; [6]
  EC50: 970 nM
HBV [1]; [7]
  EC50: 240 nM
HBV [1]; [8]
  EC50: 5100 nM
HBV [1]; [9]
  EC50: 1700 nM
HBV [1]; [10]
  EC50: 61 nM
HBV [1]; read-out: HBsAg EC50, PHH infected with HBV GTA, treated every three to four days for 13 days
  EC50: 36 nM
HBV [1]; read-out: HBsAg EC50, PHH infected with HBV GTC, treated every three to four days for 13 days
  EC50: 120 nM
HBV [1]; read-out: HBsAg EC50, PHH infected with HBV GTD, treated every three to four days for 13 days (Table 3)
  EC50: 220 nM
HBV [1]; read-out: HBsAg EC50, PHH infected with HBV GTE, treated every three to four days for 13 days
  EC50: 3100 nM
Cytotoxicity CC50, PHH
  CC50: > 50000 nM
HBV [2]; 336 h, read-out: EC50 range across genotypes, extracellular HBV DNA, range across genotypes, 14 days of dosing
  EC50: 79 to 250 nM
HBV [2]; 336 h, read-out: EC50 range for extracellular DNA, range over the seven PHH donors tested, HBV GTD, Day 14
  EC50: 7.1 to 1300 nM
HBV [2]; 336 h, read-out: median EC50, extracellular HBV DNA, median across HBV genotypes, 14 days of dosing
  EC50: 200 nM
HBV [2]; [11]
  EC50: 7.1 nM
HBV [2]; [12]
  EC50: 70 nM
HBV [2]; [13]
  EC50: 230 nM
HBV [2]; [14]
  EC50: 110 nM
HBV [2]; [15]
  EC50: 1100 nM
HBV [2]; [16]
  EC50: 1300 nM
HBV [2]; [17]
  EC50: 140 nM
HBV [2]; read-out: vDNA EC50, PHH infected with HBV GTA, treated every three to four days for 13 days
  EC50: 170 nM
HBV [2]; read-out: vDNA EC50, PHH infected with HBV GTC, treated every three to four days for 13 days
  EC50: 79 nM
HBV [2]; read-out: vDNA EC50, PHH infected with HBV GTD, treated every three to four days for 13 days (Table 3)
  EC50: 220 nM
HBV [2]; read-out: vDNA EC50, PHH infected with HBV GTE, treated every three to four days for 13 days
  EC50: 250 nM
Cytotoxicity CC50, MRC-5
  CC50: > 44000 nM
Cytotoxicity CC50, MT-4
  CC50: 51000 ± 1200 nM
[3]
  measurable cytotoxicity: neither GS-5801 nor GS-080 had measurable cytotoxicity
Cytotoxicity CC50, NRVM
  CC50: > 44000 nM
